# How the values were obtained:
# [1] = Particle Size Analysis by Sieve Method; type: physicochemical; conditions: non-micronized metaxalone
# Description: The Sieve Method refers to the method for particle size analysis described in American Society for Testing and Materials (ASTM) standard C 136 (in effect on Jan. 1, 2019). In the method a representative weighed sample is poured into the top sieve which has the largest screen openings. Each lower sieve in the column has smaller openings than the one above. At the base is a round pan, called the receiver. The column is typically placed in a mechanical shaker. such as the sonic sifter available from Endecotts (London, UK). See Endecotts website at https://www.endecotts.com/products/sieve-shakers/sonic-sifter/product-specifications/. The shaker shakes the column, usually for some fixed amount of time. After the shaking is complete the material on each sieve is weighed. The mass of the sample of each sieve is then divided by the total mass to give a percentage retained on each sieve. The size of the average particle on each sieve is then analyzed to get a cut-off point or specific size range, which is then captured on a screen. Tables 2a and 2b describes representative particle sizes for the micronized and non-micronized metaxalone particles used in the formulation of Table 1. [table]
# [2] = Particle Size Analysis by Malvern Method; type: physicochemical; conditions: micronized metaxalone
# Description: In one subembodiment, when the formulation is characterized based on metaxalone particle size, at least 50%, 70%, or 90% of the micronized particles of metaxalone are smaller than 200, 100, or 75 microns when tested according to the Malvern Method (i.e. laser diffraction). Alternatively or in addition, at least 30%, 40%, or 50% of the micronized particles are less than 50, 30, or 20 microns. when tested according to the Malvern Method. Tables 2a and 2b describes representative particle sizes for the micronized and non-micronized metaxalone particles used in the formulation of Table 1. [table]
Compound,% Retained on Sieve # 30 [1] [%],% Retained on Sieve # 120 [1] [%],% Retained on Sieve # 325 [1] [%],10% of the Particles (d10) [2] [µ],50% of the Particles (d50) [2] [µ],90% of the Particles (d90) [2] [µ]
"Cc1cc(C)cc(OCC2CNC(=O)O2)c1 (single isomer, unassigned) [Lot2b, metaxalone]",1,49,30,–,–,–
"Cc1cc(C)cc(OCC2CNC(=O)O2)c1 (single isomer, unassigned) [Lot2c, metaxalone]",1,63,29,–,–,–
"Cc1cc(C)cc(OCC2CNC(=O)O2)c1 (single isomer, unassigned) [Lot2d, metaxalone]",1,61,28,–,–,–
"Cc1cc(C)cc(OCC2CNC(=O)O2)c1 (stereo not drawn) [Lot2a, metaxalone]",–,–,–,0.81,10.11,49.91
